{"source": "patent US20020183388A1", "about": "“Use of retinoids plus histone deacetylase inhibitors to inhibit the growth of solid tumors” (priority 2001, published 2002)", "key": {"[1]": {"system": "LnCap human prostate cancer cells", "assay": "Growth assay of LnCap cells, cell number counted", "assay_type": "cell-based", "conditions": "168 h, day 7, 1 μM retinoic acid, 1 μM retinol, 0.5 μM valproic acid, drugs added only once at time 0, read-out: inhibition of cell growth (FIG. 17)", "method": "(§1) Data was plotted using Prism 3.0.\nCell number was counted on days 0, 3, 5, and 7. In this experiment, retinoic acid was employed alone at 1 μM. Retinol (vitamin A) was employed at 1 μM. Valproic acid, a histone deacetylase inhibitor, was employed at 0.5 μM alone. Combinations of these drugs were also used. All drugs were added only once, at time 0, in this experiment. […] Valproic acid (VPA) alone inhibited cell growth by approximately 40%. The combination of retinoic acid plus VPA inhibited cell growth by 75%, as did the combination of valproic acid plus retinol."}, "[2]": {"system": "PC-3 human prostate cancer cells", "assay": "Growth assay of PC-3 cells, cell number counted", "assay_type": "cell-based", "conditions": "day 7; low dose TSA; drugs added only once on day 0", "method": "as §1\nResults of growth assays of the human prostate cancer cell line PC-3, are depicted in FIG. 20. Cells were treated as indicated. Cell number was counted on days 0, 3, 5, and 7. Drugs were added only once on day 0. TSA alone, retinoic acid alone, and retinol alone each inhibited cell growth by approximately 20% at day 7. The combination of low dose TSA plus retinoic acid or low dose TSA plus retinol inhibited cell growth by almost 60%."}, "[3]": {"system": "SCC-15 human head and neck cancer cells", "assay": "Growth assay of SCC-15 cells, cell number counted", "assay_type": "cell-based", "conditions": "SCC-15, 168 h, day 7, TSA 8 ng/ml, 1 μM retinoic acid, 1 μM retinol, drugs added only at time 0, read-out: inhibition of cell growth (FIG. 19)", "method": "as §1\nCells were treated as indicated. Drugs were added only at time 0. Cell number was counted on days 0, 3, 5, and 7.\nCell number was counted on days 0, 3, 5, and 7. In this experiment, a low dose of TSA (8 ng/ml) was used alone or in combination with 1 μM retinoic acid or 1 μM retinol. Drugs were added only at time 0."}, "[4]": {"system": "HMEC normal human mammary epithelial cells (primary cultures)", "assay": "Growth assay of HMEC cells, cell number counted", "assay_type": "cell-based", "conditions": "cells counted days 0, 3, 5, 7, 1 μM retinoic acid, 2 ng/ml TSA, 25 μM phenylbutyrate", "method": "Also used were HMEC cells, which are cells from a normal human mammary epithelial cell line (primary cultures).\nas §1\nThe drugs were added as described above, and cells were counted on days 0, 3, 5, and 7. […] However, in the body, most normal cells are not rapidly dividing as tumor cells are. […] This experiment was primarily performed in order to determine if the retinoid and histone deacetylase inhibitor combination worked similarly in tumor and normal epithelial cells."}, "[5]": {"system": "MB-435 human breast cancer cells", "assay": "Growth assay of MB-435 cells by MTT", "assay_type": "cell-based", "method": "96 well tissue culture dishes were seeded with 10^4 cells/well in 200 μL DME tissue culture medium supplemented with 10% fetal calf serum (FCS).\nThis assay detects color which is proportional to the number of cells present. Tissue culture medium containing drugs was removed and 200 µL of DME containing 2 mg/mL MTT ((3-4, 5-dimethyl thiazol-2yl) 2,5-diphenyltetrazolium bromide) was added to each well. Plates were incubated at 37° C. and 10% CO2 for 30 minutes. Medium containing MTT was then removed and the cells were washed once with PBS. Following removal of the PBS, 200 μL DMSO was added to each well and plates were placed on a rotating platform shaker for 5 minutes. Results were obtained by reading the absorbance at a wavelength of 550 nm using a spectrophotometer. Data was plotted using Prism 3.0.\nCells were plated in wells on day 0. Drugs were added on day 0 and again on days 3 and 5. The MTT assay was carried out on days 5 and 7. 1 μM of retinoic acid was used vs. 1 μM of liposomal retinoic acid (ATRA-IV). A very low dose (2 ng/ml) of trichostatin A (TSA) was also used. In addition, another inhibitor of histone deacetylases, 500 μM phenylbutyrate, was used. Various combinations of the drugs were also used in the growth assays.\nCells were treated as indicated."}, "[6]": {"system": "SK-RC-39 human renal carcinoma cells", "assay": "Growth assay of SK-RC-39 cells, cell number counted", "assay_type": "cell-based", "conditions": "low dose TSA", "method": "as §1\nThe cells were counted at day 7. A small amount of ethanol was added to the control cells, as a vehicle and solvent for the retinoic acid.\nCulture conditions were as shown. […] The term EtOH indicates the control cells, treated with a very low amount of ethanol, the same amount used to dissolve retinoic acid."}, "[7]": {"system": "SK-RC-39 cells (subcutaneous xenograft)", "assay": "Human tumor xenograft model in nu/nu mice", "assay_type": "in vivo", "method": "Forty Swiss nu/nu mice were injected in the right flank subcutaneously with 5×10^6 SK-RC-39 cells that had been cultured in 7% MEM and then trypsinized. Four days later, four cohorts of 10 mice each began to receive one tail vein injection of TSA or control and one injection of ATRA-IV or control every Monday, Wednesday and Friday for the duration of the experiment. The four treatment groups were as follows: (1) PBS with 1% EtOH+empty liposomes; (2) LipoATRA (7.4-8.1 mg/kg)+PBS with 1% EtOH; (3) TSA ([…])+empty liposomes; and (4) TSA+LipoATRA. The study ended in the eighth week of treatment and at least six animals remained in each arm at the conclusion of the study and were considered evaluable. The animals tolerated the treatment well and gained weight throughout the treatment course. […] The tumor growth inhibition observed in the TSA+LipoATRA arm was much greater than that observed in the control arm. While the difference between the TSA+LipoATRA and the TSA+empty liposome arm was significant (FIG. 16), both of these treatments led to a very statistically significant difference in growth as compared to the control arm."}, "[8]": {"system": "SK-RC-01 human renal carcinoma cells", "assay": "Growth assay of SK-RC-01 cells, cell number counted", "conditions": "for inhibition of cell growth (FIG. 7): retinoic acid", "experimental": "Trichostatin A (Wako Pure Chemical Industries, Ltd., Osaka, Japan) was dissolved in 5 ml of EtOH to make a 1 mg/ml stock and sodium phenylbutyrate (NaPBA, Triple Crown America, Perkasie, Pa.) was prepared weekly from the powdered form to make a 25 mM stock solution. Cell lines were maintained in Minimal Essential Medium supplemented with 7% fetal calf serum, non-essential amino acids, and 1% penicillin/streptomycin (7% MEM).\n(§2) 24 well tissue culture dishes were seeded with cells in 1 mL tissue culture medium (Clonetics) at 10^4 cells/well. Cells were incubated overnight at 37° C. in 10% CO2. Fresh medium containing drugs: Ethanol control (EtOH), 1 μM retinoic acid (RA), 2ng/mL trichostatin A (TSA), 25 μM sodium phenylbutyrate (PBa), and combinations of these were added the next day (day zero). Fresh medium containing drugs was added on days 3 and 5. Cells were trypsinized on days 0, 3, 5, and 7 and cell number was determined using a Z1 Coulter particle counter. […] Error bars are the standard error mean (SEM) of 4 replicate wells.\nCells were treated as indicated. The cell number was counted at day 7.\nThe cell number was counted on day 7."}, "[9]": {"system": "SK-RC-45 human renal carcinoma cells", "assay": "Growth assay of SK-RC-45 cells, cell number counted", "experimental": "Liposome encapsulated ATRA (ATRA-IV, Antigenics Inc., New York, N.Y.) was reconstituted from 100 mg vials with 50 ml of 0.9% saline. Powdered ATRA was dissolved in EtOH to make a 1 mM ATRA (Sigma, St. Louis, Mo.) stock which was stored at −80° C. Trichostatin A (Wako Pure Chemical Industries, Ltd., Osaka, Japan) was dissolved in 5 ml of EtOH to make a 1 mg/ml stock and sodium phenylbutyrate (NaPBA, Triple Crown America, Perkasie, Pa.) was prepared weekly from the powdered form to make a 25 mM stock solution. Cell lines were maintained in Minimal Essential Medium supplemented with 7% fetal calf serum, non-essential amino acids, and 1% penicillin/streptomycin (7% MEM). Empty liposomes (provided by Antigenics Inc.) were diluted in 10 ml of 0.9% saline to equal the same concentration of liposomes in the lipoATRA.\nas §2\nCells were treated as indicated. The cell number was counted on day 7.\nCells were treated as indicated and cell number was counted."}, "[10]": {"conditions": "cells counted at day 7, low dose TSA"}, "[11]": {"conditions": "cells counted on day 7, 1 μM retinoic acid, low dose TSA"}}}
{"smiles": "CC1=C(/C=C/C(C)=C/C=C/C(C)=C/CO)C(C)(C)CCC1", "note": "[retinol]", "values": [{"measurement": "inhibition at 1 µM", "setting": "[1]", "result": "~27", "unit": "%"}, {"measurement": "inhibition of cell growth (FIG. 20)", "setting": "[2]", "result": "approximately 20%"}, {"measurement": "inhibition at 1 µM", "setting": "[3]", "result": "35 to 40", "unit": "%"}]}
{"smiles": "CCCC(CCC)C(=O)O", "note": "[Valproic acid]", "values": [{"measurement": "inhibition at 0.5 µM", "setting": "[1]", "result": "~40", "unit": "%"}]}
{"smiles": "CC(/C=C/C(=O)NO)=C\\[C@@H](C)C(=O)c1ccc(N(C)C)cc1", "note": "[TSA, trichostatin A]", "values": [{"measurement": "inhibition of cell growth (FIG. 2)", "setting": "[4]", "result": "about 50%"}, {"measurement": "growth inhibition, high dose TSA (FIG. 3)", "setting": "[5]; TSA 100 ng/ml", "result": "complete growth inhibition"}, {"measurement": "inhibition of cell growth (FIG. 1)", "setting": "[5]; day 7, 1 μM retinoic acid, 1 μM ATRA-IV, 2 ng/ml TSA, 500 μM phenylbutyrate, drugs added days 0, 3, 5", "result": "did not inhibit cell growth"}, {"measurement": "comparison of cell growth reduction between treatments (FIG. 3)", "setting": "[5]; days 3, 5, 7", "result": "better in reducing cell growth than phenylbutyrate"}, {"measurement": "inhibition of cell growth (FIG. 20)", "setting": "[2]", "result": "approximately 20%"}, {"measurement": "inhibition of cell growth (FIG. 6)", "setting": "[6]; cells counted at day 7, retinoic acid", "result": "80-90%"}, {"measurement": "inhibition of cell growth (FIG. 9)", "setting": "[6]; cells counted on day 7, 1 μM retinoic acid", "result": "approximately 75%"}, {"measurement": "toxicity, histologic analysis of the liver, lung, spleen and kidneys", "setting": "[7]; nu/nu mice, tail vein injection Mon/Wed/Fri for eight weeks", "result": "lack of toxicity"}, {"measurement": "inhibition of tumor growth compared to control (FIG. 16)", "setting": "[7]; tail vein injection Mon/Wed/Fri, eighth week of treatment, LipoATRA 7.4-8.1 mg/kg, TSA 34-41 μg/ml", "result": 38, "unit": "%"}, {"measurement": "inhibition of cell growth, high dose TSA (FIG. 7)", "setting": "[8]; cells counted at day 7, TSA 100 ng/ml", "result": "roughly 100%"}, {"measurement": "inhibition of cell growth (FIG. 7)", "setting": "[8]; [10]", "result": "20-25%"}, {"measurement": "inhibition of cell growth (FIG. 12)", "setting": "[8]; [11]", "result": "approximately 25%"}, {"measurement": "inhibition of cell growth, high dose TSA (FIG. 12)", "setting": "[8]; cells counted on day 7, high dose TSA", "result": "greater than 95%"}, {"measurement": "inhibition of cell growth (FIG. 8)", "setting": "[9]; [11]", "result": "60-65%"}, {"measurement": "inhibition of cell growth, high dose TSA (FIG. 8)", "setting": "[9]; cells counted on day 7, TSA 100 ng/ml", "result": "extremely effective in inhibiting kidney cancer cell growth"}]}
{"smiles": "CC1=C(/C=C/C(C)=C/C=C/C(C)=C/C(=O)O)C(C)(C)CCC1", "note": "[retinoic acid, 3, 7 dimethyl-9-(2,6,6-trimethyl-1-cyclohenen-1-yl)-2,4,6,8,-nonatetraenoic acid]", "values": [{"measurement": "inhibition at 1 µM", "setting": "[1]", "result": 25, "unit": "%"}, {"measurement": "inhibition at 1 µM", "setting": "[4]; Homo sapiens, HMEC, read-out: inhibition of cell growth (FIG. 2)", "result": "~50", "unit": "%"}, {"measurement": "inhibition at 1 µM", "setting": "[5]; Homo sapiens, 168 h, day 7, 1 μM retinoic acid, 1 μM ATRA-IV, 2 ng/ml TSA, 500 μM phenylbutyrate, drugs added days 0, 3, 5, read-out: inhibition of cell growth (FIG. 1)", "result": "~20", "unit": "%"}, {"measurement": "inhibition of cell growth (FIG. 20)", "setting": "[2]", "result": "approximately 20%"}, {"measurement": "inhibition at 1 µM", "setting": "[8]; Homo sapiens, 168 h, read-out: inhibition of cell growth (FIG. 12)", "result": 12.5, "unit": "%"}, {"measurement": "inhibition of cell growth (FIG. 7)", "setting": "[8]; [10]", "result": "~10", "unit": "%"}, {"measurement": "inhibition at 1 µM", "setting": "[3]", "result": "35 to 40", "unit": "%"}, {"measurement": "inhibition at 1 µM", "setting": "[9]; Homo sapiens, 168 h, read-out: inhibition of cell growth (FIG. 8)", "result": "55 to 60", "unit": "%"}]}
